The subject of experiment [1] is Rats. Kind of experiment: Oral Glucose Tolerance Test (OGTT) in rats, single injection (blood glucose AUC, body weight, food consumption). Format: in vivo. The conditions noted are these: for Food Consumption (g) / Body weight change (%): 30 nM/kg s.c.; for Food Consumption (g): 0-12 hr; for Food Consumption (g) / Body weight change (%) / Blood Glucose AUC(0-120min) Mean: mean (n=4); for Blood Glucose AUC(0-120min) Mean: OGTT 2 g/kg glucose orally, 24 hr post subcutaneous injection of 30 nM/kg; for % Change in Blood glucose AUC(0-120min) vs placebo control: OGTT 24 hr post subcutaneous injection of 30 nM/kg. On the procedure:
Animals were divided into 6 groups (n=4/group): a placebo control group, Compound 17, (30 nM/kg), Compound 18 (30 nM/kg), Compound 19 (30 nM/kg), Compound 20 (30 nM/kg), and Retatrutide (30 nM/kg). Animals were fasted for 12 hours before initiation of OGTT. After 24 hours of subcutaneous injection of tests or Retatrutide, blood glucose was measured with blood glucometer (time 0 measurement). All the animals were given 2 g/kg of glucose solution orally. Blood glucose was measured at 10, 20, 40, 60, 90, and 120 min following glucose challenge. Body weight and food consumption were recorded at 12 hr, 48 hr and 72 hr.

For experiment [2], the system named is Rats. Described as above. The conditions noted are these: 30 nM/kg s.c., mean (n=4); for Body weight change (%): 24 hr. The format is in vivo.
The next experiment concerns the target GLP-1R (UniProt P43220 24-463, limits assumed). Kind of experiment: cell-based or functional assay.
The target of another experiment is T1, GIPR (UniProt P48546 22-466, limits assumed).
T1 sequence (looked up): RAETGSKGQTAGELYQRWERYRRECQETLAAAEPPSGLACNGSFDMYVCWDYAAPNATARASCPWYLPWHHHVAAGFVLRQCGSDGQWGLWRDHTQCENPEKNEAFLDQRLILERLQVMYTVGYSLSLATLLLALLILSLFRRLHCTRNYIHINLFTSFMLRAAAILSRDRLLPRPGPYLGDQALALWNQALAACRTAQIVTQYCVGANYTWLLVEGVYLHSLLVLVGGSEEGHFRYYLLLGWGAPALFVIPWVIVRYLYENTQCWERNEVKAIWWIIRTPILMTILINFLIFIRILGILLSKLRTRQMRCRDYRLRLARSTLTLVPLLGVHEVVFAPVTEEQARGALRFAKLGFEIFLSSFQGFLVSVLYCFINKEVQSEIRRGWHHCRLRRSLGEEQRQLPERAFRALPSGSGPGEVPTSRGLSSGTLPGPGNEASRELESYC
Kind of experiment: cell-based or functional assay.

A further experiment deals with GCGR (UniProt P47871 26-477, limits assumed). Kind of experiment: cell-based or functional assay.

Marks after values point to notes of the source that are not given here.

Chain of GCGR (P47871 26-477 limits assumed): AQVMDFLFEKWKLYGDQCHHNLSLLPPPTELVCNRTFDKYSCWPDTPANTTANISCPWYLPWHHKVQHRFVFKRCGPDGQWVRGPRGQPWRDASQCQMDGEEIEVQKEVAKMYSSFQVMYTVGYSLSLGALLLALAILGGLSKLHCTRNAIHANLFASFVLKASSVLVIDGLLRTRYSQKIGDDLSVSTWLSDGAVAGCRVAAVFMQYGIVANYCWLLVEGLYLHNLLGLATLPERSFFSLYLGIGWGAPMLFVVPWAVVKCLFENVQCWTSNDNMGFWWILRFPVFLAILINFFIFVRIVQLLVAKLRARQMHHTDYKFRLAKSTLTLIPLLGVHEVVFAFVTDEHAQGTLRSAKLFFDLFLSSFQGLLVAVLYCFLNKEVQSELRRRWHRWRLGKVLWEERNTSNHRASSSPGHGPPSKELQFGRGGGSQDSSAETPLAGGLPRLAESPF

Regarding `CC[C@H](C)[C@H](NC(=O)[C@H](Cc1ccccc1)NC(=O)[C@H](C)NC(=O)C(C)(C)NC(=O)[C@H](CCC(N)=O)NC(=O)[C@H](C)NC(=O)[C@H](CCCCNC(=O)COCCOCCNC(=O)NCCCCNC(=O)CC[C@H](NC(=O)CCCCCCCCCCCCCCCCC(=O)O)C(=O)O)NC(=O)[C@H](CCCCN)NC(=O)[C@H](CC(=O)O)NC(=O)[C@H](CC(C)C)NC(=O)[C@](C)(CC(C)C)NC(=O)[C@@H](NC(=O)[C@H](CO)NC(=O)[C@H](Cc1ccc(O)cc1)NC(=O)[C@H](CC(=O)O)NC(=O)[C@H](CO)NC(=O)[C@@H](NC(=O)[C@H](Cc1ccccc1)NC(=O)[C@@H](NC(=O)CNC(=O)[C@H](CCC(N)=O)NC(=O)C(C)(C)NC(=O)[C@@H](N)Cc1ccc(O)cc1)[C@@H](C)O)[C@@H](C)O)[C@@H](C)CC)C(=O)N[C@@H](CCC(=O)O)C(=O)N[C@@H](Cc1ccc(O)cc1)C(=O)N[C@@H](CC(C)C)C(=O)N[C@@H](CC(C)C)C(=O)N[C@@H](CCC(=O)O)C(=O)NCC(=O)NCC(=O)N1CCC[C@H]1C(=O)N[C@@H](CO)C(=O)N[C@@H](CO)C(=O)NCC(=O)N[C@@H](C)C(=O)N1CCC[C@H]1C(=O)N1CCC[C@H]1C(=O)N1CCC[C@H]1C(=O)N[C@@H](CO)C(N)=O` [Compound 19], the “Food Consumption (g)” value was 1.3*** g in the experiment with Rats [1], 7.2*** g with Rats [2] (24-48 hr) and 17.0*** g in the experiment on Rats [2] (24-72 hr). Also, the “Body weight change (%)” value is -4.9*** % in the experiment with Rats [1] (48 hr), -2.6*** % in the experiment with Rats [1] (72 hr) and -6.3*** % in the experiment with Rats [2]. The “Blood Glucose AUC(0-120min) Mean” value in the experiment on Rats [1] is 3848.8***. The “% Change in Blood glucose AUC(0-120min) vs placebo control” value (from here on “% Change in Blood glucose AUC(0-120min)”) in the experiment with Rats [1] was -60.20%.

`CC[C@H](C)[C@H](NC(=O)[C@H](Cc1ccccc1)NC(=O)[C@H](C)NC(=O)C(C)(C)NC(=O)[C@H](CCC(N)=O)NC(=O)[C@H](C)NC(=O)[C@H](CCCCNC(=O)COCCOCCNC(=O)NCCCCNC(=O)CC[C@H](NC(=O)CCCCCCCCCCCCCCCCCCC(=O)O)C(=O)O)NC(=O)[C@H](CCCCN)NC(=O)[C@H](CC(=O)O)NC(=O)[C@H](CC(C)C)NC(=O)[C@](C)(CC(C)C)NC(=O)[C@@H](NC(=O)[C@H](CO)NC(=O)[C@H](Cc1ccc(O)cc1)NC(=O)[C@H](CC(=O)O)NC(=O)[C@H](CO)NC(=O)[C@@H](NC(=O)[C@H](Cc1ccccc1)NC(=O)[C@@H](NC(=O)CNC(=O)[C@H](CCC(N)=O)NC(=O)C(C)(C)NC(=O)[C@@H](N)Cc1ccc(O)cc1)[C@@H](C)O)[C@@H](C)O)[C@@H](C)CC)C(=O)N[C@@H](CCC(=O)O)C(=O)N[C@@H](Cc1ccc(O)cc1)C(=O)N[C@@H](CC(C)C)C(=O)N[C@@H](CC(C)C)C(=O)N[C@@H](CCC(=O)O)C(=O)NCC(=O)NCC(=O)N1CCC[C@H]1C(=O)N[C@@H](CO)C(=O)N[C@@H](CO)C(=O)NCC(=O)N[C@@H](C)C(=O)N1CCC[C@H]1C(=O)N1CCC[C@H]1C(=O)N1CCC[C@H]1C(=O)N[C@@H](CO)C(N)=O` [Compound 20]: the “Food Consumption (g)” value with Rats [1] is 1.6*** g; in the experiment with Rats [2] (24-48 hr), 12.8*** g; with Rats [2] (24-72 hr), 33.1*** g. The “Body weight change (%)” value is -4.6*** % in the experiment with Rats [1] (48 hr), -2.7*** % with Rats [1] (72 hr) and -6.0*** % in the experiment with Rats [2]. The “Blood Glucose AUC(0-120min) Mean” value with Rats [1] is on record as 4472.5***. For the same molecule, the “% Change in Blood glucose AUC(0-120min)” value in the experiment with Rats [1] was -53.76%.

`CC[C@H](C)[C@H](NC(=O)[C@H](Cc1ccccc1)NC(=O)[C@H](C)NC(=O)C(C)(C)NC(=O)[C@H](CCC(N)=O)NC(=O)[C@H](C)NC(=O)[C@H](CCCCNC(=O)COCCOCCNC(=O)CC[C@H](NC(=O)CCCCCCCCCCCCCCCCCCC(=O)O)C(=O)O)NC(=O)[C@H](CCCCN)NC(=O)[C@H](CC(=O)O)NC(=O)[C@H](CC(C)C)NC(=O)[C@](C)(CC(C)C)NC(=O)[C@@H](NC(=O)[C@H](CO)NC(=O)[C@H](Cc1ccc(O)cc1)NC(=O)[C@H](CC(=O)O)NC(=O)[C@H](CO)NC(=O)[C@@H](NC(=O)[C@H](Cc1ccccc1)NC(=O)[C@@H](NC(=O)CNC(=O)[C@H](CCC(N)=O)NC(=O)C(C)(C)NC(=O)[C@@H](N)Cc1ccc(O)cc1)[C@@H](C)O)[C@@H](C)O)[C@@H](C)CC)C(=O)N[C@@H](CCC(=O)O)C(=O)N[C@@H](Cc1ccc(O)cc1)C(=O)N[C@@H](CC(C)C)C(=O)N[C@@H](CC(C)C)C(=O)N[C@@H](CCC(=O)O)C(=O)NCC(=O)NCC(=O)N1CCC[C@H]1C(=O)N[C@@H](CO)C(=O)N[C@@H](CO)C(=O)NCC(=O)N[C@@H](C)C(=O)N1CCC[C@H]1C(=O)N1CCC[C@H]1C(=O)N1CCC[C@H]1C(=O)N[C@@H](CO)C(N)=O` [Retatrutide, reference compound]: the “Food Consumption (g)” value was 0.7*** g with Rats [1], 8.6*** g in the experiment on Rats [2] (24-48 hr) and 23.8*** g in the experiment with Rats [2] (24-72 hr). Also, the “Body weight change (%)” value in the experiment with Rats [1] (48 hr) is given as -4.5*** %; in the experiment on Rats [1] (72 hr) it was -2.5*** %; with Rats [2], -6.0*** %. In addition, in the experiment on Rats [1], the “Blood Glucose AUC(0-120min) Mean” value is reported as 3792.5***. In the experiment with Rats [1], the “% Change in Blood glucose AUC(0-120min)” value is -60.79%.

B1: Compound 12 (peptide)
peptide: YXQGTFTSDYSIXLDKXAQXAFIEYLLEGGPSSGAPPPS
modifications: Aib at 2; αMethyl-Leu at 13; Lys 17 ε-amino acylated with Moiety A; Aib at 20; C-terminal amide (Rink amide resin)
In the case of B1, the “EC50 value, cellular cAMP assay (Hit Hunter cAMP)” value (from here on “EC50 value, cellular cAMP assay”) worked out at 12 nM with GLP-1R, 12 nM in the experiment with GIPR and 6.99 nM with GCGR.

B2: Compound 20 (peptide)
peptide: YXQGTFTSDYSIXLDKXAQXAFIEYLLEGGPSSGAPPPS
modifications: Aib at 2; αMethyl-Leu at 13; Lys 17 ε-amino acylated with Moiety D; Aib at 20; C-terminal amide
As for B2, the “EC50 value, cellular cAMP assay” value stood at 0.0144 nM in the experiment with GLP-1R, 0.0181 nM with GIPR and 0.14 nM with GCGR.

B3: Compound 18 (peptide)
peptide: YXQGTFTSDYSIXLDKXAQXAFIEYLLEGGPSSGAPPPS
modifications: not fully specified; Aib at 2; norvaline at 13; Lys 17 ε-amino acylated with Moiety G; Aib at 20; C-terminal amide
In the case of B3, the figures for the “EC50 value, cellular cAMP assay” value in the experiment with GLP-1R, with GIPR and with GCGR were 0.0173 nM, 0.0227 nM and 0.193 nM, respectively.

B4: Compound 19 (peptide)
peptide: YXQGTFTSDYSIXLDKXAQXAFIEYLLEGGPSSGAPPPS
modifications: Aib at 2; αMethyl-Leu at 13; Lys 17 ε-amino acylated with Moiety C; Aib at 20; C-terminal amide
On to B4, for which the “EC50 value, cellular cAMP assay” value with GLP-1R is 0.0116 nM; in the experiment with GIPR it was 0.0138 nM; with GCGR it was 0.109 nM.

B5: Compound 13 (peptide)
peptide: YXQGTFTSDYSIXLDKXAQXAFIEYLLEGGPSSGAPPPS
modifications: Aib at 2; αMethyl-Leu at 13; Lys 17 ε-amino acylated with Moiety B; Aib at 20; C-terminal amide
With B5, the “EC50 value, cellular cAMP assay” value in the experiment with GLP-1R was over 2.4 nM; with GIPR, over 1.5 nM; with GCGR, over 1.8 nM.

B6: Compound 14 (peptide)
peptide: YXQGTFTSDYSIXLDKXAQXAFIEYLLEGGPSSGAPPPS
modifications: Aib at 2; norleucine at 13; Lys 17 ε-amino acylated with Moiety B; Aib at 20; C-terminal amide
Take B6: the results for the “EC50 value, cellular cAMP assay” value with GLP-1R, with GIPR and with GCGR were 8.54 nM, 24 nM and 20.9 nM, respectively.

B7: Compound 17 (peptide)
peptide: YXQGTFTSDYSIXLDKXAQXAFIEYLLEGGPSSGAPPPS
modifications: Aib at 2; norvaline at 13; Lys 17 ε-amino acylated with Moiety B; Aib at 20; C-terminal amide
As to B7, the “EC50 value, cellular cAMP assay” value was found to be 0.0087 nM in the experiment with GLP-1R, 0.0115 nM with GIPR and 0.0133 nM with GCGR.

The values are drawn from patent publication EP4803094A2, “GLP-1/GIP DUAL, GLP-1/GCG DUAL AND GLP-1/GIP/GCG TRIPLE RECEPTOR AGONISTS” (Sun Pharmaceutical Industries Limited, priority 2023, dated 2024).
